Assay results: article PMC2888690 (Journal of combinatorial chemistry, 2009)
Values joined by “and” are separate entries in the source; they are usually repeats but may differ in a detail not shown here. Equal entries are not always repeated. Where two headings read alike, the source gives them in different places.

What was measured:
[1] = test system: Bacillus anthracis Sterne; experiment: microbe, parasite or virus in culture; format: cell-based
[2] = test system: Bacillus anthracis Sterne; experiment: microbe, parasite or virus in culture; format: cell-based; remark: listed apart in the source

SMILES | MIC ([1]; 5 h, read-out: MH MIC) | MIC ([1]; read-out: MH B.a. MIC) | MIC ([2]; 5 h, read-out: LB MIC) | MIC ([2]; read-out: LB B.a. MIC)
O=C(Nc1ccc(NS(=O)(=O)c2ccc(Cl)c(Cl)c2)cc1)Nc1ccc([N+](=O)[O-])cc1 [5{1}, 3,4-Dichloro-(N-(4-(((4-nitrophenyl)amino)carbonyl)aminophenyl))benzenesulfonamide] | 3.8 µM and 1.8 µg/mL | 3.8 µM and 1.8 µg/mL | 2.8 µM and 1.3 µg/mL | 2.8 µM and 1.3 µg/mL
O=C(Nc1ccc(NS(=O)(=O)c2ccc(Cl)c(Cl)c2)cc1)Nc1cccc([N+](=O)[O-])c1 [5{2}, 3,4-Dichloro-(N-(4-(((3-nitrophenyl)amino)carbonyl)aminophenyl))benzenesulfonamide] | – | – | > 240 µM and > 115 µg/mL | > 240 µM and > 115 µg/mL
O=C(Nc1ccc(NS(=O)(=O)c2ccc(Cl)c(Cl)c2)cc1)Nc1ccccc1[N+](=O)[O-] [5{3}, 3,4-Dichloro-(N-(4-(((2-nitrophenyl)amino)carbonyl)aminophenyl))benzenesulfonamide] | – | – | > 240 µM and > 115 µg/mL | > 240 µM and > 115 µg/mL
Nc1ccc(S(=O)(=O)Nc2ccc(NC(=O)Nc3ccccc3[N+](=O)[O-])cc2)cc1 [compound 9, 4-Amino-(N-(4-(((2-nitrophenyl)amino)carbonyl)aminophenyl))benzenesulfonamide] | – | – | 120 µM and 53 µg/mL | –
